Results published in patent US20230203043A1, “NOVEL IMIDAZOPYRAZINE DERIVATIVES” (Hoffmann-La Roche Inc., priority 2020, published 2023).
Counter-ions that a name gives are not always drawn. Like-named read-outs stand apart in the source and are kept apart here.

Test system: Acinetobacter baumannii ATCC17961
Assay: Antimicrobial susceptibility testing: 90% growth inhibitory concentration (IC90) determination in Iso-Sensitest broth, OD600 growth
Format: cell-based
How it was run: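 Compounds were twofold serially diluted in DMSO across 10 points (e.g. 50 to 0.097 μM final) and inoculated at ~5×10^(5) CFU/ml. Plates incubated at 35±2° C, with OD600 read every 20 minutes over 16 h. IC90 was derived from growth inhibition during logarithmic growth.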

[1] = Acinetobacter baumannii, ATCC17961, 16 h, strain ATCC 17961, OD600 growth over 16 h, read-out: A. baumannii ATCC 17961 IC90
[2] = Acinetobacter baumannii, ATCC17961, 16 h, read-out: A. baumannii ATCC 17961 IC90 (uM), strain ATCC 17961, OD600 growth over 16 h
[3] = strain ATCC 17961, OD600 growth over 16 h, read-out: A. baumannii ATCC 17961 IC90

IC90 [1]	Compound	IC90 [2]	also measured
0.449 µM	O=C(c1ccc(Nc2nccn3c(-c4c[nH]nc4C(F)(F)F)cnc23)cc1Cl)N1CCNCC1 [Example 431, [2-chloro-4-[[3-[3-(trifluoromethyl)-1H-pyrazol-4-yl]imidazo[1,2-a]pyrazin-8-yl]amino]phenyl]-piperazin-1-ylmethanone]	–	–
0.832 µM	N#CCn1cc(-c2cnc3c(Nc4ccc(C(=O)N5CC(NC(=O)N[C@H]6CCNC6)C5)c(Cl)c4)nccn23)c(C(F)(F)F)n1 [Example 172, 1-[1-[2-chloro-4-[[3-[1-(cyanomethyl)-3-(trifluoromethyl)pyrazol-4-yl]imidazo[1,2-a]pyrazin-8-yl]amino]benzoyl]azetidin-3-yl]-3-[(3S)-pyrrolidin-3-yl]urea]	–	–
0.102 µM	CCc1cc(Nc2nccn3c(-c4c[nH]nc4C(F)(F)F)cnc23)ccc1C(=O)NCCOC[C@H](C)N [Example 203, N-[2-[(2S)-2-aminopropoxy]ethyl]-2-ethyl-4-[[3-[3-(trifluoromethyl)-1H-pyrazol-4-yl]imidazo[1,2-a]pyrazin-8-yl]amino]benzamide]	–	–
3.26 µM	C#CCNCCCNC(=O)c1c(C)cc(Nc2nccn3c(-c4c[nH]nc4C(F)(F)F)cnc23)cc1F [Example 85, 2-fluoro-6-methyl-N-[3-(prop-2-ynylamino)propyl]-4-[[3-[3-(trifluoromethyl)-1H-pyrazol-4-yl]imidazo[1,2-a]pyrazin-8-yl]amino]benzamide]	–	–
0.369 µM	O=C(NC1CN(C(=O)c2ccc(Nc3nccn4c(-c5c[nH]nc5C(F)(F)F)cnc34)cc2Cl)C1)N[C@@H]1CCNC1 [Example 168, 1-[1-[2-chloro-4-[[3-[3-(trifluoromethyl)-1H-pyrazol-4-yl]imidazo[1,2-a]pyrazin-8-yl]amino]benzoyl]azetidin-3-yl]-3-[(3R)-pyrrolidin-3-yl]urea]	–	–
3.07 µM	CCc1cc(Nc2nccn3c(-c4cn(CC(=O)O)nc4C(F)(F)F)cnc23)ccc1C(=O)NCCOCCN [Example 271, 2-[4-[8-[4-[2-(2-aminoethoxy)ethylcarbamoyl]-3-ethylanilino]imidazo [1,2-a]pyrazin-3-yl]-3-(trifluoromethyl)pyrazol-1-yl]acetic acid]	–	–
1.22 µM	O=C(NCC(=O)N1CCNCC1)c1ccc(Nc2nccn3c(-c4c[nH]nc4C(F)(F)F)cnc23)cc1Cl [Example 162, 2-chloro-N-(2-oxo-2-piperazin-1-ylethyl)-4-[[3-[3-(trifluoromethyl)-1H-pyrazol-4-yl]imidazo[1,2-a]pyrazin-8-yl]amino]benzamide]	–	–
0.261 µM	CCc1cc(Nc2nccn3c(-c4cn(CC(F)F)nc4C(F)(F)F)cnc23)ccc1C(=O)NCC(=O)N1CC2CC1CN2 (stereo not shown) [Example 538, N-2-(2,5-diazabicyclo[2.2.1]heptan-2-yl)-2-oxo-ethyl]-4-[[3-[1-(2,2-difluoroethyl)-3-(trifluoromethyl)pyrazol-4-yl]imidazo[1,2-a]pyrazin-8-yl]amino]-2-ethyl-benzamide formate]	–	–
0.1 µM	N#CCn1cc(-c2cnc3c(Nc4ccc(C(=O)N5CC(N)C5)c(Cl)c4)nccn23)c(C(F)(F)F)n1 [Example 100, 2-[4-[8-[4-(3-aminoazetidine-1-carbonyl)-3-chloroanilino]imidazo[1,2-a]pyrazin-3-yl]-3-(trifluoromethyl)pyrazol-1-yl]acetonitrile]	–	–
1.42 µM	Cc1cc(Nc2nccn3c(-c4c[nH]nc4C(F)(F)F)cnc23)ccc1C(=O)N1CCN(C(=O)NCC2CNC2)CC1 [Example 410, N-(azetidin-3-ylmethyl)-4-[2-methyl-4-[[3-[3-(trifluoromethyl)-1H-pyrazol-4-yl]imidazo[1,2-a]pyrazin-8-yl]amino]benzoyl]piperazine-1-carboxamide]	–	–
0.35 µM	CCc1cc(Nc2nccn3c(-c4cn(CC#N)nc4C(F)(F)F)cnc23)ccc1C(=O)NCC1CCN(CC2CNC2)CC1 [Example 828, N-((1-(azetidin-3-ylmethyl)piperidin-4-yl)methyl)-4-((3-(1-(cyanomethyl)-3-(trifluoromethyl)-1H-pyrazol-4-yl)imidazo[1,2-α]pyrazin-8-yl)amino)-2-ethylbenzamide 2,2,2-trifluoroacetate]	–	–

Continued, compound first:

Compound	IC90 [1]	IC90 [2]	also measured
N#CCCn1cc(-c2cnc3c(Nc4ccc(C(=O)N5CCN(C(=O)N[C@H]6CCNC6)CC5)c(Cl)c4)nccn23)c(C(F)(F)F)n1 [Example 259, 4-[2-chloro-4-[[3-[1-(2-cyanoethyl)-3-(trifluoromethyl)pyrazol-4-yl]imidazo[1,2-a]pyrazin-8-yl]amino]benzoyl]-N-[(3S)-pyrrolidin-3-yl]piperazine-1-carboxamide formate]	–	0.463 µM	–
Cc1cc(Nc2nccn3c(-c4cn(CC#N)nc4C(F)(F)F)cnc23)cc(F)c1C(=O)N1CCN(C(=O)[C@@H]2C[C@@H](O)CN2)CC1 [Example 721, 2-(4-(8-((3-fluoro-4-(4-((2S,4R)-4-hydroxypyrrolidine-2-carbonyl)piperazine-1-carbonyl)-5-methylphenyl)amino)imidazo[1,2-a]pyrazin-3-yl)-3-(trifluoromethyl)-1H-pyrazol-1-yl) acetonitrile formate]	–	0.452 µM	–
NCCCC[C@H](N)C(=O)NCCNC(=O)c1ccc(Nc2nccn3c(-c4c[nH]nc4C(F)(F)F)cnc23)cc1Cl [Example 224, 2-chloro-N-[2-[[(2S)-2,6-diaminohexanoyl]amino]ethyl]-4-[[3-[3-(trifluoromethyl)-1H-pyrazol-4-yl]imidazo[1,2-a]pyrazin-8-yl]amino]benzamide formate]	–	1.5 µM	–
Cc1cc(Nc2nccn3c(-c4c[nH]nc4C(F)(F)F)cnc23)ccc1C(=O)N1CCN(C(=O)[C@@H]2CCNC[C@@H]2O)CC1 [Example 461, formic acid; [4-[(3R,4R)-3-hydroxypiperidine-4-carbonyl]piperazin-1-yl]-[2-methyl-4-[[3-[3-(trifluoromethyl)-1H-pyrazol-4-yl]imidazo[1,2-a]pyrazin-8-yl]amino]phenyl]methanone]	–	0.926 µM	–
Cc1cc(Nc2nccn3c(-c4c[nH]nc4C(F)(F)F)cnc23)ccc1C(=O)N1CCN(C(=O)N[C@@H]2CCNC2)CC1 [Example 416, formic acid; 4-[2-methyl-4-[[3-[3-(trifluoromethyl)-1H-pyrazol-4-yl]imidazo[1,2-a]pyrazin-8-yl]amino]benzoyl]-N-[(3R)-pyrrolidin-3-yl]piperazine-1-carboxamide]	–	0.441 µM	–
CCc1cc(Nc2nccn3c(-c4cn(CC#N)nc4C(F)(F)F)cnc23)ccc1C(=O)N1CCNCC1 [Example 260, 2-[4-[8-[3-ethyl-4-(piperazine-1-carbonyl)anilino]imidazo[1,2-a]pyrazin-3-yl]-3-(trifluoromethyl)pyrazol-1-yl]acetonitrile formate]	–	0.519 µM	–
N[C@@H]1CC[C@H](NC(=O)N2CCN(C(=O)c3ccc(Nc4nccn5c(-c6c[nH]nc6C(F)(F)F)cnc45)cc3Cl)CC2)C1 [Example 233, N-[(1S,3R)-3-aminocyclopentyl]-4-[2-chloro-4-[[3-[3-(trifluoromethyl)-1H-pyrazol-4-yl]imidazo[1,2-a]pyrazin-8-yl]amino]benzoyl] piperazine-1-carboxamide formate]	–	–	IC90 [3]: 0.169 µM
C[C@@H](NC(=O)c1ccc(Nc2nccn3c(-c4cn(CC#N)nc4C(F)(F)F)cnc23)cc1Cl)C(=O)N1CC[C@H](N)C1 [Example 665, N-[(1R)-2-[(3S)-3-aminopyrrolidin-1-yl]-1-methyl-2-oxo-ethyl]-2-chloro-4-[[3-[1-(cyanomethyl)-3-(trifluoromethyl)pyrazol-4-yl]imidazo[1,2-a]pyrazin-8-yl]amino]benzamide formate]	–	0.29 µM	–
CCc1cc(Nc2nccn3c(-c4cn(CC(F)F)nc4C(F)(F)F)cnc23)ccc1C(=O)N[C@H](C)CNC(=O)OC(C)(C)C [Example 130, tert-butyl N-[(2R)-2-[[4-[[3-[1-(2,2-difluoroethyl)-3-(trifluoromethyl)pyrazol-4-yl]imidazo[1,2-a]pyrazin-8-yl]amino]-2-ethylbenzoyl]amino]propyl] carbamate]	–	–	IC90 [3]: 1.33 µM
CNC(=O)c1ccc(Nc2nccn3c(-c4cn(CCN(C)C)nc4C(F)(F)F)cnc23)cc1Cl [Example 591, 2-chloro-4-((3-(1-(2-(dimethylamino)ethyl)-3-(trifluoromethyl)-1H-pyrazol-4-yl)imidazo[1,2-a]pyrazin-8-yl)amino)-N-methylbenzamide formate]	–	0.483 µM	–
CCc1cc(Nc2nccn3c(-c4cn(CC#N)nc4C(F)(F)F)cnc23)ccc1C(=O)NCC(=O)N1CC[C@H](N)C1 [Example 681, N-[2-[(3S)-3-aminopyrrolidin-1-yl]-2-oxo-ethyl]-4-[[3-[1-(cyanomethyl)-3-(trifluoromethyl)pyrazol-4-yl]imidazo[1,2-a]pyrazin-8-yl]amino]-2-ethyl-benzamide formate]	–	0.327 µM	–
CCc1cc(Nc2nccn3c(-c4cn(C5CCCC5)nc4C(F)(F)F)cnc23)ccc1C(=O)NCCOCCN [Example 26, N-[2-(2-aminoethoxy)ethyl]-4-[[3-[1-cyclopentyl-3-(trifluoromethyl)pyrazol-4-yl]imidazo[1,2-a]pyrazin-8-yl]amino]-2-ethylbenzamide hydrochloride]	0.282 µM	–	–
Cc1cc(Nc2nccn3c(-c4cn(C)nc4C(F)(F)F)cnc23)ccc1C(=O)N1CCN(C(=O)[C@@H]2C[C@](C)(O)CN2)CC1 [Example 472, formic acid; [4-[(2S,4S)-4-hydroxy-4-methylpyrrolidine-2-carbonyl]piperazin-1-yl]-[2-methyl-4-[[3-[1-methyl-3-(trifluoromethyl)pyrazol-4-yl]imidazo[1,2-a]pyrazin-8-yl]amino]phenyl]methanone]	–	1.24 µM	–
CCc1cc(Nc2nccn3c(-c4c[nH]nc4C(F)(F)F)cnc23)ccc1C(=O)NCCN [Example 229, N-(2-aminoethyl)-2-ethyl-4-[[3-[3-(trifluoromethyl)-1H-pyrazol-4-yl]imidazo[1,2-a]pyrazin-8-yl]amino]benzamide formate]	–	1.1 µM	–
